Reference: PMC9120017, “Inhibition mechanism of the chloride channel TMEM16A by the pore blocker 1PBC” (Nature Communications, 2022)
Where two headings read alike, the source gives them in different places.

Target: T1, mouse TMEM16A mutant K603Q (Mus musculus, UniProt Q8BHY3, K603Q)
T1 construct: expressed in transfected cells; host or cells: HEK293T
T1 sequence (Q8BHY3 1-960 K603Q): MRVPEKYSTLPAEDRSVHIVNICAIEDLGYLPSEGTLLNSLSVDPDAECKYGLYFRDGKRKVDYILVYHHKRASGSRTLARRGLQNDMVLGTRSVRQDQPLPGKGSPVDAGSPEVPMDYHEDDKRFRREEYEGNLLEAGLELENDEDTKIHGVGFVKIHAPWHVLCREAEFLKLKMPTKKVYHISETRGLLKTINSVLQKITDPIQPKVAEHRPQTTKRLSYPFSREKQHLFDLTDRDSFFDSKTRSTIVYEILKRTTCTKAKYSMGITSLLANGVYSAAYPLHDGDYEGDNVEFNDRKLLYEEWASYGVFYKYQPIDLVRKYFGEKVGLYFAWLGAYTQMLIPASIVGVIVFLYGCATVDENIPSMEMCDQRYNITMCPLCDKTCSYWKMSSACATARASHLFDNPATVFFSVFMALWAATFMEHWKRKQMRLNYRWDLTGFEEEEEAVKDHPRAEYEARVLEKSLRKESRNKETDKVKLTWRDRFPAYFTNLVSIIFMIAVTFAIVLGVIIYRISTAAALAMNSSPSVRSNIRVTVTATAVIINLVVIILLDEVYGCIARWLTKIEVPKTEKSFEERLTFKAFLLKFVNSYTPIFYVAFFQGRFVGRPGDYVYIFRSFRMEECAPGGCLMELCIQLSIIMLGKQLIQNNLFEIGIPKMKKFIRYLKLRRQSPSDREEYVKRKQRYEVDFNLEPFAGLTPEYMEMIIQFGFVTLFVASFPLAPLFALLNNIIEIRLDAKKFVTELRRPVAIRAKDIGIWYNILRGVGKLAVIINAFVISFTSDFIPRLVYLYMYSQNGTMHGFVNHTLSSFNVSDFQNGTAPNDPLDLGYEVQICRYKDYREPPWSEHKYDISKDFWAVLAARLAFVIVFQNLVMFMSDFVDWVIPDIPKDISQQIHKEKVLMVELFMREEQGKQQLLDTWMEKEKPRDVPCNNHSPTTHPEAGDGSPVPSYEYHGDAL
Assay: Inside-out patch recording of 1PBC block, mutant K603Q
Format: cell-based
Method: HEK293T cells (ATCC CRL-1573) were maintained in Dulbecco’s modified Eagle’s medium (DMEM; Sigma-Aldrich) supplemented with 10 U ml^−1 penicillin, 0.1 mg ml^−1 streptomycin (Sigma-Aldrich), 2 mM L-glutamine (Sigma-Aldrich), and 10% FBS (Sigma-Aldrich) in a humidified atmosphere containing 5% CO2 at 37 °C. HEK293S GnTI^− cells (ATCC CRL-3022) were maintained in HyClone HyCell TransFx-H medium (GE Healthcare) supplemented with 10 U ml^−1 penicillin, 0.1 mg ml^−1 streptomycin, 4 mM L-glutamine, 0.15% poloxamer 188 (Sigma-Aldrich), and 1% FBS in an atmosphere containing 5% CO2 at 185 rpm at 37 °C. The ac splice variant of mouse TMEM16A (UniProt ID: Q8BHY3), mouse TMEM16B (UniProt ID: Q8CFW1), or mouse TMEM16F (UniProt ID: Q6P9J9) bearing a 3C cleavage site, a Venus YFP, a Myc tag, and a Streptavidin-binding peptide (SBP) downstream of the open reading frame in a modified pcDNA3.1 vector (Invitrogen) were used as described previously[21],[31]. Mutations were introduced using a modified QuikChange method[58] and were verified by sequencing.
HEK293T cells were transfected with 3–4 μg DNA per 6 cm Petri dish using the calcium phosphate co-precipitation method and were used within 24–96 h after transfection. Recordings were performed on inside-out patches excised from HEK293T cells expressing the construct of interest. Patch pipettes were pulled from borosilicate glass capillaries (O.D. 1.5 mm, I.D. 0.86 mm, Sutter Instrument) and were fire-polished with a microforge (Narishige) before use. Pipette resistance was typically 3–8 MΩ when filled with the recording solutions detailed below. Seal resistance was typically 4 GΩ or higher. Voltage-clamp recordings were made using Axopatch 200B, Digidata 1550, and Clampex 10.7 (Molecular Devices). Analog signals were filtered with the in-built 4-pole Bessel filter at 10 kHz and were digitized at 20 kHz. Solution exchange was achieved using a gravity-fed system through a theta glass pipette mounted on an ultra-fast piezo-driven stepper (Siskiyou). […] All recordings were performed at 20 °C.
A symmetrical ionic condition was used throughout. Stock solution with Ca^2+-EGTA contained 150 mM NaCl, 5.99 mM Ca(OH)2, 5 mM EGTA, and 10 mM HEPES at pH 7.40. Stock solution with EGTA contained 150 mM NaCl, 5 mM EGTA, and 10 mM HEPES at pH 7.40. Free Ca^2+ concentrations were adjusted by mixing the stock solutions at the required ratios calculated using the WEBMAXC program (http://web.stanford.edu/~cpatton/webmaxcS.htm). Patch pipettes were filled with the stock solution with Ca^2+-EGTA, which has a free Ca^2+ concentration of 1 mM. 1PBC (ChemBridge) stock was reconstituted in anhydrous DMSO (Sigma-Aldrich) at 100 mM and stored at −20 °C. Working solutions with 1PBC were prepared by serial dilution. Unless otherwise stated, experiments were performed at a saturating Ca^2+ concentration as shown in Supplementary Table 1 and the primary data were corrected for current rundown as described previously[21],[25].
Concentration-response relations, obtained from the ratio of the I-V plots before and after the application of the blocker, were fitted to the Hill equation,1 I/Imax=1/1+IC50/[blocker]^h where I/Imax is the normalized current responses, IC50 defines the concentration at which inhibition is at its half-maximum, and h is the Hill coefficient.

IC50 (0 mV, 4 µM Ca2+): 193 µM
remaining activity at 10 µM (0 mV, 1PBC conc 10, read-out: relative current in 1PBC (avr)): 94.4%
remaining activity at 30 µM (0 mV, 1PBC conc 30, read-out: relative current in 1PBC (avr)): 85.8%
remaining activity at 100 µM (0 mV, 1PBC conc 100, read-out: relative current in 1PBC (avr)): 66.3%
remaining activity at 10 µM (10 µM 1PBC, +80 mV, saturating Ca2+ (4 µM), read-out: I/Imax): 95.1%
remaining activity at 10 µM (10 µM 1PBC, -80 mV, saturating Ca2+ (4 µM), read-out: I/Imax): 92.8%
remaining activity at 30 µM (30 µM 1PBC, +80 mV, saturating Ca2+ (4 µM), read-out: I/Imax): 87%
remaining activity at 30 µM (30 µM 1PBC, -80 mV, saturating Ca2+ (4 µM), read-out: I/Imax): 86.9%
remaining activity at 100 µM (100 µM 1PBC, +80 mV, saturating Ca2+ (4 µM), read-out: I/Imax): 65.4%
remaining activity at 100 µM (100 µM 1PBC, -80 mV, saturating Ca2+ (4 µM), read-out: I/Imax): 66.1%
IC50 (20 mV, 4 µM Ca2+): 206 µM
remaining activity at 10 µM (20 mV, 1PBC conc 10, read-out: relative current in 1PBC (avr)): 96.5%
remaining activity at 30 µM (20 mV, 1PBC conc 30, read-out: relative current in 1PBC (avr)): 87.2%
remaining activity at 100 µM (20 mV, 1PBC conc 100, read-out: relative current in 1PBC (avr)): 67.1%
IC50 (40 mV, 4 µM Ca2+): 190 µM
remaining activity at 10 µM (40 mV, 1PBC conc 10, read-out: relative current in 1PBC (avr)): 94.6%
remaining activity at 30 µM (40 mV, 1PBC conc 30, read-out: relative current in 1PBC (avr)): 87.4%
remaining activity at 100 µM (40 mV, 1PBC conc 100, read-out: relative current in 1PBC (avr)): 65%
IC50 (60 mV, 4 µM Ca2+): 196 µM
remaining activity at 10 µM (60 mV, 1PBC conc 10, read-out: relative current in 1PBC (avr)): 95%
remaining activity at 30 µM (60 mV, 1PBC conc 30, read-out: relative current in 1PBC (avr)): 86.3%
remaining activity at 100 µM (60 mV, 1PBC conc 100, read-out: relative current in 1PBC (avr)): 66.4%
log-fold IC50 (change of mutant vs WT) (80 mV): 1.991
IC50 (80 mV, 4 µM Ca2+): 192 µM
remaining activity at 10 µM (80 mV, 1PBC conc 10, read-out: relative current in 1PBC (avr)): 95.1%
remaining activity at 30 µM (80 mV, 1PBC conc 30, read-out: relative current in 1PBC (avr)): 87%
remaining activity at 100 µM (80 mV, 1PBC conc 100, read-out: relative current in 1PBC (avr)): 65.4%
IC50 (100 mV, 4 µM Ca2+): 197 µM
remaining activity at 10 µM (100 mV, 1PBC conc 10, read-out: relative current in 1PBC (avr)): 95.8%
remaining activity at 30 µM (100 mV, 1PBC conc 30, read-out: relative current in 1PBC (avr)): 87.5%
remaining activity at 100 µM (100 mV, 1PBC conc 100, read-out: relative current in 1PBC (avr)): 65.8%
IC50 (120 mV, 4 µM Ca2+): 198 µM
remaining activity at 10 µM (120 mV, 1PBC conc 10, read-out: relative current in 1PBC (avr)): 97.2%
remaining activity at 30 µM (120 mV, 1PBC conc 30, read-out: relative current in 1PBC (avr)): 88.7%
remaining activity at 100 µM (120 mV, 1PBC conc 100, read-out: relative current in 1PBC (avr)): 65%
IC50 (140 mV, 4 µM Ca2+): 196 µM
remaining activity at 10 µM (140 mV, 1PBC conc 10, read-out: relative current in 1PBC (avr)): 97.5%
remaining activity at 30 µM (140 mV, 1PBC conc 30, read-out: relative current in 1PBC (avr)): 89.1%
remaining activity at 100 µM (140 mV, 1PBC conc 100, read-out: relative current in 1PBC (avr)): 64.5%
IC50 (-20 mV, 4 µM Ca2+): 180 µM
remaining activity at 10 µM (-20 mV, 1PBC conc 10, read-out: relative current in 1PBC (avr)): 92.4%
remaining activity at 30 µM (-20 mV, 1PBC conc 30, read-out: relative current in 1PBC (avr)): 84.5%
remaining activity at 100 µM (-20 mV, 1PBC conc 100, read-out: relative current in 1PBC (avr)): 65.5%
IC50 (-40 mV, 4 µM Ca2+): 187 µM
remaining activity at 10 µM (-40 mV, 1PBC conc 10, read-out: relative current in 1PBC (avr)): 93.3%
remaining activity at 30 µM (-40 mV, 1PBC conc 30, read-out: relative current in 1PBC (avr)): 86.6%
remaining activity at 100 µM (-40 mV, 1PBC conc 100, read-out: relative current in 1PBC (avr)): 65.2%
IC50 (-60 mV, 4 µM Ca2+): 193 µM
remaining activity at 10 µM (-60 mV, 1PBC conc 10, read-out: relative current in 1PBC (avr)): 93.8%
remaining activity at 30 µM (-60 mV, 1PBC conc 30, read-out: relative current in 1PBC (avr)): 84.7%
remaining activity at 100 µM (-60 mV, 1PBC conc 100, read-out: relative current in 1PBC (avr)): 67.1%
IC50 (-80 mV, 4 µM Ca2+): 193 µM
remaining activity at 10 µM (-80 mV, 1PBC conc 10, read-out: relative current in 1PBC (avr)): 92.8%
remaining activity at 30 µM (-80 mV, 1PBC conc 30, read-out: relative current in 1PBC (avr)): 86.9%
remaining activity at 100 µM (-80 mV, 1PBC conc 100, read-out: relative current in 1PBC (avr)): 66.1%
IC50 (-100 mV, 4 µM Ca2+): 199 µM
remaining activity at 10 µM (-100 mV, 1PBC conc 10, read-out: relative current in 1PBC (avr)): 95.1%
remaining activity at 30 µM (-100 mV, 1PBC conc 30, read-out: relative current in 1PBC (avr)): 86.6%
remaining activity at 100 µM (-100 mV, 1PBC conc 100, read-out: relative current in 1PBC (avr)): 66.7%
IC50 (-120 mV, 4 µM Ca2+): 202 µM
remaining activity at 10 µM (-120 mV, 1PBC conc 10, read-out: relative current in 1PBC (avr)): 94.9%
remaining activity at 30 µM (-120 mV, 1PBC conc 30, read-out: relative current in 1PBC (avr)): 86.9%
remaining activity at 100 µM (-120 mV, 1PBC conc 100, read-out: relative current in 1PBC (avr)): 67%
IC50 (-140 mV, 4 µM Ca2+): 216 µM
remaining activity at 10 µM (-140 mV, 1PBC conc 10, read-out: relative current in 1PBC (avr)): 96.6%
remaining activity at 30 µM (-140 mV, 1PBC conc 30, read-out: relative current in 1PBC (avr)): 88.1%
remaining activity at 100 µM (-140 mV, 1PBC conc 100, read-out: relative current in 1PBC (avr)): 68%
IC50 (K603Q, V 0 mV): 193 µM
IC50 (K603Q, V 20 mV): 206 µM
IC50 (K603Q, V 40 mV): 190 µM
IC50 (K603Q, V 60 mV): 196 µM
IC50 (K603Q, V 80 mV): 192 µM
IC50 (K603Q, V 100 mV): 197 µM
IC50 (K603Q, V 120 mV): 198 µM
IC50 (K603Q, V 140 mV): 196 µM
IC50 (K603Q, V -20 mV): 180 µM
IC50 (K603Q, V -40 mV): 187 µM
IC50 (K603Q, V -60 mV): 193 µM
IC50 (K603Q, V -80 mV): 193 µM
IC50 (K603Q, V -100 mV): 199 µM
IC50 (K603Q, V -120 mV): 202 µM
IC50 (K603Q, V -140 mV): 216 µM
Lowering of the potency of block vs WT (Lys 603 to glutamine): about 100 fold
Compound: N#Cc1c(C(F)(F)F)cc(O)n2c1nc1ccccc12 [1PBC]
